Test results published in patent US20090306020A1, “Combination therapy comprising diaryl ureas for treating diseases” (Bayer Healthcare AG, priority 2005, published 2009).
Entries after “also recorded” stand apart in the source; their conditions may differ.

Tests used:
phospho-AKT (Ser473) = assay: Immunohistochemistry for phosphorylated AKT in melanoma reconstructs; format: cell-based, human; conditions: Skmel28 reconstructs; 4 μM wortmannin
Experimental: (§1) The in vitro reconstruction of metastatic melanoma is based on the organotypic human skin culture technique (14). A cell-free buffered collagen solution was prepared consisting of rat tail collagen type I (BD Biosciences, Bedford, Mass., USA) at a final concentration of 1.35 mg/ml in Dulbecco's modified Eagle's medium with 10% FBS. 1.0 ml of the cell-free collagen solution was added to tissue culture inserts (Millicell PC, Millipore, Bedford, Mass., USA) placed in six-well tissue culture plates. While the acellular collagen layer was solidifying, a second collagen solution was prepared similar to the first with the addition of human fibroblasts and the melanoma cells SKMEL28 or 451 LU. Human fibroblasts and human melanoma cells from subconfluent cultures were trypsinised, washed and resuspended in the second collagen solution at a density of 15×10^5/ml and a fibroblast to melanoma cell ratio of 1:1. 3.0 ml of the fibroblast and melanoma cell-containing collagen solution were placed over the solidified acellular collagen layer. After 5 days of incubation at 37° C., the fibroblast contraction force causes the collagen gel to contract. This structure represents the melanoma reconstruct in a dermal equivalent. […] After 10 to 14 days of submerged culture, the melanoma reconstructs were harvested and evaluated. […]

MelCAM [1] = assay: Immunohistochemistry for MelCAM in metastatic melanoma reconstructs; format: cell-based, human; conditions: Skmel28 and WM451Lu in dermal reconstructs; 4 μM wortmannin, 6 μM BAY 43-9006, alone or combined
Experimental: as §1

[2] = system: Skmel28 metastatic melanoma cells; assay: Invasive melanoma growth in human dermal reconstructs (hematoxylin staining); format: cell-based; conditions: 4 μM wortmannin; for invasive melanoma growth (number and size of melanoma cell nests): 6 μM BAY 43-9006, alone or combined
Experimental: (§2) The in vitro reconstruction of metastatic melanoma is based on the organotypic human skin culture technique (14). A cell-free buffered collagen solution was prepared consisting of rat tail collagen type I (BD Biosciences, Bedford, Mass., USA) at a final concentration of 1.35 mg/ml in Dulbecco's modified Eagle's medium with 10% FBS. 1.0 ml of the cell-free collagen solution was added to tissue culture inserts (Millicell PC, Millipore, Bedford, Mass., USA) placed in six-well tissue culture plates. While the acellular collagen layer was solidifying, a second collagen solution was prepared similar to the first with the addition of human fibroblasts and the melanoma cells SKMEL28 or 451 LU. Human fibroblasts and human melanoma cells from subconfluent cultures were trypsinised, washed and resuspended in the second collagen solution at a density of 15×10^5/ml and a fibroblast to melanoma cell ratio of 1:1. 3.0 ml of the fibroblast and melanoma cell-containing collagen solution were placed over the solidified acellular collagen layer. After 5 days of incubation at 37° C., the fibroblast contraction force causes the collagen gel to contract. This structure represents the melanoma reconstruct in a dermal equivalent. For submerged culture conditions, 3 ml of melanoma cell culture medium supplemented with 10% FBS were added beneath the insert and 2 ml inside the insert to allow proliferation of the seeded cells. The culture medium was changed every two days. After 10 to 14 days of submerged culture, the melanoma reconstructs were harvested and evaluated.
For blockade of the AKT and MAPK signaling pathways, the PI3K inhibitor wortmannin (Sigma, Steinheim, Germany) and BAY 43-9006 alone or in combination were added directly to the culture medium of the melanoma reconstructs or melanoma cells in monolayer culture at 4 μM and 6 μM, respectively. These concentrations have been described previously to be effective for melanoma cells 6 (16). The culture medium was changed every two days. Melanoma reconstructs treated with culture medium or culture medium with the addition of DMSO served as controls. All experiments were done as duplicates and were repeated twice.
Melanoma reconstructs were fixed with 4% formaldehyde for 8-9 h, dehydrated, and embedded in paraffin. Paraffin sections were stained with hematoxylin for routine light microscopy. […]
Finally, we determined whether the inhibition of the PI3K/AKT signaling pathway and the MAP kinase signaling pathway is able to affect invasive melanoma growth in a physiological context. […]

MelCAM [3] = assay: Flow cytometry of cell surface MelCAM, 451Lu monolayer; format: cell-based, human; conditions: 4 μM wortmannin, 6 μM BAY 43-9006, alone or combined, 96 hours
Experimental: (§3) For blockade of the AKT and MAPK signaling pathways, the PI3K inhibitor wortmannin (Sigma, Steinheim, Germany) and BAY 43-9006 alone or in combination were added directly to the culture medium of the melanoma reconstructs or melanoma cells in monolayer culture at 4 μM and 6 μM, respectively. […] The culture medium was changed every two days. Melanoma reconstructs treated with culture medium or culture medium with the addition of DMSO served as controls. All experiments were done as duplicates and were repeated twice.
(§4) Surface proteins of 1×10^5-1×10^6 451Lu metastatic melanoma cells were stained as follows: Cells were pelleted for 5 min at 1,800 rpm (Heraeus variofuge 3.0R), blocked with 1×PBS/1% BSA, and after centrifugation incubated with antibodies against MeI-CAM (QBiogene-Alexis) or avβ3 integrin (BD Biosciences, Heidelberg) for 15 minutes at room temperature. Cells were washed with 1×PBS/1% BSA and subsequently incubated with anti mouse IgG-FITC (BD Biosciences, Heidelberg) or mouse IgG-isotype control-FITC alone (BD Biosciences, Heidelberg). After washing and pelleting the cells, the cell pellet was resuspended in 1×PBS and measured in a FACScalibur (BD Bioscienses, Heidelberg).
(§5) Furthermore, we examined whether inhibition of these signaling pathways affected expression of the adhesion molecules MelCAM and avβ3 known to play a key role in melanoma cell invasion. […]

[4] = system: Skmel28 metastatic melanoma cells; assay: Active caspase 3 staining (apoptosis) of melanoma reconstructs; format: cell-based, human; conditions: Skmel28 in dermal reconstructs; wortmannin, BAY 43-9006 or both
Experimental: as §1

[5] = system: 451Lu metastatic melanoma cells; assay: Proliferation assay (fluorimetric, 4-methylumbelliferyl heptanoate, MUH), monolayer culture; format: cell-based, human; conditions: 451Lu monolayer; wortmannin 2-20 μM, BAY 43-9006 1-7 μM; MUH fluorescence
Experimental: Cells were seeded as triplicates in 96 well plates at a density of 1,500 cells per well in 150 μl medium (1×10^4 cells per ml). The PI3K inhibitor wortmannin (Sigma, Steinheim, Germany) was directly added to the culture medium at concentrations ranging from 2-20 μM. BAY 43-9006 was added directly to the culture medium at concentrations ranging from 0.5-7 μM. Culture medium, cells treated with culture medium, and cells treated with culture medium with the addition of DMSO served as controls. Assay was started at timepoints indicated. Medium was discarded and each well was washed two times with PBS (without Ca2+ and Mg2+) and 100 μl of a solution containing 100 μg MUH (4-methylumbelliferyl-hepanoat)/ml PBS was added. Plates were incubated at 37° C. for one hour and measured in a Fluoroskan II (Labsystems, Helsinki), with an […]. The intensity of fluorescence indicates the number of vital cells in the wells (18,19).
To analyze the effects of inhibition of either the MAPK or AKT signaling pathways or both together on the proliferation of melanoma cells, we treated the metastatic melanoma cell line 451Lu in monolayer with the PI3K inhibitor wortmannin, BAY 43-9006, or both together. […]
The effect of inhibition of these signaling pathways on cell proliferation was determined by a fluorimetric assay using 4-methylumbelliferyl heptanoate (MUH) (18, 19).

β3 integrin = assay: Immunohistochemistry for β3 integrin in metastatic melanoma reconstructs; format: cell-based, human; conditions: Skmel28 and WM451Lu in dermal reconstructs, 4 μM wortmannin, 6 μM BAY 43-9006, alone or combined
Experimental: as §2
For blockade of the AKT and MAPK signaling pathways, the PI3K inhibitor wortmannin (Sigma, Steinheim, Germany) and BAY 43-9006 alone or in combination were added directly to the culture medium of the melanoma reconstructs or melanoma cells in monolayer culture at 4 μM and 6 μM, respectively. These concentrations have been described previously to be effective for melanoma cells 6 (16). The culture medium was changed every two days. […]

[6] = system: Skmel28 metastatic melanoma cells; assay: Ki-67 proliferation marker staining of melanoma reconstructs (organotypic culture); format: cell-based, human; conditions: Skmel28 in dermal reconstructs; 4 μM wortmannin, 6 μM BAY 43-9006, alone or combined; 2-3 weeks
Experimental: as §1

avβ3 integrin = assay: Flow cytometry of cell surface avβ3 integrin, 451Lu monolayer; format: cell-based, human; conditions: 4 μM wortmannin, 6 μM BAY 43-9006, alone or combined, 96 hours
Experimental: as §3, §4, §5

[7] = system: phospho-ERK (phospho-p44/42 MAP kinase, Thr202/Tyr204); assay: Immunohistochemistry for phosphorylated ERK in melanoma reconstructs; format: cell-based, human; conditions: Skmel28 reconstructs; 6 μM BAY 43-9006
Experimental: as §1

COC[C@H]1OC(=O)c2coc3c2[C@@]1(C)C1=C(C3=O)[C@@H]2CCC(=O)[C@@]2(C)C[C@H]1OC(C)=O [wortmannin]
inhibition of phosphorylation of AKT (phospho-AKT (Ser473)): effective in the inhibition of phosphorylation
expression of MelCAM (MelCAM [1]): downregulated the expression of MelCAM
cohesion of melanoma cells (melanoma-melanoma cell adhesion) [2]: decreased
morphology of melanoma cells [2]: multidendritic morphology; also recorded: multidendritic phenotype
invasive melanoma growth (number and size of melanoma cell nests) [2]: reduced invasive tumor growth; also recorded: number and size of melanoma cell nests were reduced
cell surface expression of MelCAM (MelCAM [3]): downregulates the expression of the adhesion molecules MelCAM; also recorded: down-regulates cell surface expression of MelCAM
active caspase 3 (ongoing apoptosis) [4]: active caspase 3 was found in the majority of Skmel28 metastatic melanoma cells
effect on number of proliferating (vital) cells / proliferation rate [5]: Little or no effect on the number of proliferating cells; also recorded: no significant effect on the number of proliferating cells
expression of β3 integrin (β3 integrin): not altered
expression of β3 integrin (β3 integrin; listed as Wortmannin): not affected
cell proliferation (Ki-67 staining) [6]: little or no effect on proliferation rate

CNC(=O)c1cc(Oc2ccc(NC(=O)Nc3ccc(Cl)c(C(F)(F)F)c3)cc2)ccn1 [BAY 43-9006, 4{4-[3-(4-chloro-3-trifluoromethylphenyl)-ureido]-phenoxy}-pyridine-2-carboxylic acid methyl amide]
expression of MelCAM (MelCAM [1]): not affected; also recorded: did not appear to affect MelCAM expression
invasive melanoma growth (number and size of melanoma cell nests) [2]: reduced invasive tumor growth; also recorded: reduced number and size of melanoma cell nests
active caspase 3 (ongoing apoptosis) [4]: active caspase 3 was found in the majority of Skmel28 metastatic melanoma cells
effect on number of proliferating (vital) cells / proliferation rate [5]: significantly reduced; also recorded: significant decrease in cell proliferation
cell surface expression of avβ3 integrin (avβ3 integrin): down-regulates the expression of avβ3 integrin; also recorded: down-regulated
expression of β3 integrin (β3 integrin): significantly reduced; also recorded: substantially reduced β3 integrin expression
inhibition of phosphorylation of ERK (MAP-kinase pathway) [7]: effective in the inhibition of phosphorylation
cell proliferation (Ki-67 staining) [6]: significant decrease in cell proliferation
